The results in this text go back to ChEMBL document CHEMBL1123274, “Azasteroids: structure-activity relationships for inhibition of 5 alpha-reductase and of androgen receptor binding” (J Med Chem, 1986).

The target of one experiment is T1, Androgen receptor (Rattus norvegicus, UniProt P15207).
T1 sequence (P15207 whole entry): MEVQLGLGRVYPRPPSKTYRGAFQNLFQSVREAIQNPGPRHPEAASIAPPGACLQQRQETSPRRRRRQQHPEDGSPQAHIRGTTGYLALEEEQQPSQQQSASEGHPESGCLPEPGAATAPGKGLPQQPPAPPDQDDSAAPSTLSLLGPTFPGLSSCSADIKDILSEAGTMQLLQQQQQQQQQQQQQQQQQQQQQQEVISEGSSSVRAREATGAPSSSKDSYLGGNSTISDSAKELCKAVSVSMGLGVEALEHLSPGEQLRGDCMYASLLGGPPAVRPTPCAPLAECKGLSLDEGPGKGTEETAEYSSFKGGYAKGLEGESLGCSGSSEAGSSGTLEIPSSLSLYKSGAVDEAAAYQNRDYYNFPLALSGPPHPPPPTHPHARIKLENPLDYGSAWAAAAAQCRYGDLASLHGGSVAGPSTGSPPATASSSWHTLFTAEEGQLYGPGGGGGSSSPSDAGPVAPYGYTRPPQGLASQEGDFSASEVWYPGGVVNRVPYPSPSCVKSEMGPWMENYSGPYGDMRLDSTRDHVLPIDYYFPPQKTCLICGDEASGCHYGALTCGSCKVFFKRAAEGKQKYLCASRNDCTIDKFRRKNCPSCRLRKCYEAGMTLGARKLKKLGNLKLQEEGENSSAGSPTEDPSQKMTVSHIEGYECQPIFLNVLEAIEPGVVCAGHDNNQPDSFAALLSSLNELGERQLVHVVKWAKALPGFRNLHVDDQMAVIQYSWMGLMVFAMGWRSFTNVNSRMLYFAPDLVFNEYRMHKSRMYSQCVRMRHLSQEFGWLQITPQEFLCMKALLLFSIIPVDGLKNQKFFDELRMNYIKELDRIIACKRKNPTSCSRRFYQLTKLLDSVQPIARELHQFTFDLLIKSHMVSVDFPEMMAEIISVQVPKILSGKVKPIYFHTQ
As to the kind of experiment: In vitro antagonist activity against rat prostatic androgen receptor (AR).

The target in experiment [1] is T2, Steroid 5-alpha-reductase (Rattus norvegicus, UniProt P24008+P31214).
T2 sequence (P24008 whole entry): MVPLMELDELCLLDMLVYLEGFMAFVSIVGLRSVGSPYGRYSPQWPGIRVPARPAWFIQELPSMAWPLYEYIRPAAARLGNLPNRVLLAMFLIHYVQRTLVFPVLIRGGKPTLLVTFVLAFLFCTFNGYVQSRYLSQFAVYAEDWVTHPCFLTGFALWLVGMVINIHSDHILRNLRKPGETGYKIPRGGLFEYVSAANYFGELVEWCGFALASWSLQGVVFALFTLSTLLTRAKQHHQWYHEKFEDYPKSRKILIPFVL
T2 sequence (P31214 whole entry): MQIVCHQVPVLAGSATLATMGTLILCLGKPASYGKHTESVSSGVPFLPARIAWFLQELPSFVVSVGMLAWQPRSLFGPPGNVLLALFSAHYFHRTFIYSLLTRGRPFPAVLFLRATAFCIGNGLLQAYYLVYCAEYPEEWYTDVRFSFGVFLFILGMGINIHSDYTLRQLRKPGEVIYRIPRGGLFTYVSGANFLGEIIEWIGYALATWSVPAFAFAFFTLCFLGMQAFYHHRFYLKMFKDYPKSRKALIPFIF
As to the kind of experiment: In vitro inhibitory activity against rat prostatic steroid 5-alpha-reductase. Format: protein assay.

The pIC50 is the negative decadic logarithm of the IC50, by convention in mol/L. The term IC50 denotes the concentration that gives 50% inhibition.

pIC50: −log10 of the molar value.

In turn, `CC(CO)[C@H]1CC[C@H]2[C@@H]3CCC4N(C)C(=O)CC[C@]4(C)[C@H]3CC[C@]12C` (stereo partly specified) had a pIC50 against Androgen receptor of 6.07. The compound also gave an IC50 in experiment [1] of 3.8 nM.
As to `CCN(CC)C(=O)[C@H]1CC[C@H]2[C@@H]3CC[C@H]4N(C)C(=O)[C@@H]5C[C@@H]5[C@]4(C)[C@H]3CC[C@]12C`, the pIC50 on Androgen receptor was 5.57. Besides, in experiment [1], the 50% inhibitory concentration (IC50) is 20 nM.
Turning to `CCN(CC)C(=O)[C@H]1CC[C@H]2[C@@H]3CC[C@H]4N(C)C(=O)[C@@H](F)C[C@]4(C)[C@H]3CC[C@]12C`, the pIC50 against Androgen receptor was 5.74.
In the case of `CCOC(=O)C[C@H]1CC[C@H]2[C@@H]3CC[C@H]4N(C)C(=O)CC[C@]4(C)[C@H]3CC[C@]12C`, the pIC50 against Androgen receptor was 7.18. For the same compound, the IC50 in experiment [1] worked out at 6.8 nM.
`CN1C(=O)CC[C@@]2(C)C1CC[C@H]1[C@@H]3CC[C@H](C(=O)[O-])[C@@]3(C)CC[C@@H]12.[Na+]` (stereo partly specified): the negative logarithm of the IC50 (pIC50) on Androgen receptor was 5.04. Moreover, the concentration for half-maximal inhibition (IC50) in experiment [1] was found to be 37 nM.
Taken in the same sequence, the figures for `CCC(C)C(=O)[C@H]1CC[C@H]2[C@@H]3CCC4NC(=O)CC[C@]4(C)[C@H]3CC[C@]12C` (stereo partly specified) were less than 4.00 and 1.2 nM.
`CC(C(=O)[O-])[C@H]1CC[C@H]2[C@@H]3CC=C4N(C)C(=O)CC[C@]4(C)[C@H]3CC[C@]12C.[Na+]` (stereo partly specified) had a pIC50 at Androgen receptor of 4.60. The IC50 in experiment [1] came out at 13 nM.
On to `CN1C(=O)C=C[C@@]2(C)C1CC[C@@H]1[C@@H]2CC[C@@]2(C)[C@H]1CC[C@@]21CCCO1` (stereo partly specified), for which the pIC50 at Androgen receptor is 6.96. In experiment [1], this compound came in with an IC50 of 430 nM.
For the compound `COC(=O)C(C)[C@H]1CC[C@H]2[C@@H]3CCC4NC(=O)C=C[C@]4(C)[C@H]3CC[C@]12C` (stereo partly specified), on Androgen receptor, the pIC50 is less than 4.00.
As to `CN1C(=O)CC[C@@]2(C)C1CC[C@H]1[C@@H]3CC[C@H](C(=O)NCCO)[C@@]3(C)CC[C@@H]12` (stereo partly specified), at Androgen receptor, the pIC50 was 5.77. In addition, the IC50 in experiment [1] was found to be 93 nM.
Take `COC(=O)C(C)[C@H]1CC[C@H]2[C@@H]3CCC4N(C)C(=O)C=C[C@]4(C)[C@H]3CC[C@]12C` (stereo partly specified): at Androgen receptor, the pIC50 was 6.57.
At Androgen receptor, `CN1C(=O)C=C[C@@]2(C)C1CC[C@H]1[C@@H]3CC[C@H](C(=O)Sc4ccccn4)[C@@]3(C)CC[C@@H]12` (stereo partly specified) showed a pIC50 of 7.00.
Still for that read-out and setting: then `C[C@]12CC[C@H]3[C@@H](CCC4NC(=O)C=C[C@@]43C)[C@@H]1CC[C@@H]2C(=O)Sc1ccccn1` (stereo partly specified), with less than 5.00.
For `CN1C(=O)CC[C@H]2C1CC[C@@H]1[C@@H]2CC[C@@]2(C)[C@H]1CC[C@@]21CCCO1` (stereo partly specified), the pIC50 against Androgen receptor was 5.70.
Take `CN1C(=O)CC[C@@]2(C)C1CC[C@H]1[C@@H]3CC[C@H](C(=O)NC(C)(C)CO)[C@@]3(C)CC[C@@H]12` (stereo partly specified): the pIC50 at Androgen receptor is 6.03.
The compound `CCCCCCCCNC(=O)[C@H]1CC[C@H]2[C@@H]3CCC4N(C)C(=O)CC[C@]4(C)[C@H]3CC[C@]12C` (stereo partly specified) had a pIC50 against Androgen receptor of 6.89. This compound came in with an IC50 in experiment [1] of 0.21 nM.
As to `CCN(CC)C(=O)[C@H]1CC[C@H]2[C@@H]3CC[C@H]4N(C)C(=O)CCC[C@]4(C)[C@H]3CC[C@]12C`, on Androgen receptor, the negative logarithm of the IC50 (pIC50) is 6.22.
Consider `COC(=O)[C@H]1CC[C@H]2[C@@H]3CCC4NC(=O)CC[C@]4(C)[C@H]3CC[C@]12C` (stereo partly specified), for which, in experiment [1], the Ki app is given as 133 nM.
On to `CCCCCCCCNC(=O)[C@H]1CC[C@H]2[C@@H]3CCC4NC(=O)CC[C@]4(C)[C@H]3CC[C@]12C` (stereo partly specified), for which the pIC50 on Androgen receptor is 5.28. The compound further displayed an IC50 in experiment [1] of 0.13 nM.
Compound `CCCCCNC(=O)[C@H]1CC[C@H]2[C@@H]3CCC4N(C)C(=O)CC[C@]4(C)[C@H]3CC[C@]12C` (stereo partly specified) showed a negative logarithm of the IC50 (pIC50) against Androgen receptor of 6.60.
As to `CC(C(=O)O)[C@H]1CC[C@H]2[C@@H]3CCC4NC(=O)CC[C@]4(C)[C@H]3CC[C@]12C` (stereo partly specified), at Androgen receptor, the pIC50 was less than 4.00.
On Androgen receptor, `C[C@]12CC[C@H]3[C@@H](CCC4NC(=O)CC[C@@]43C)[C@@H]1CC[C@@H]2C(=O)[O-].[K+]` (stereo partly specified) gave a pIC50 of less than 4.00. The IC50 in experiment [1] worked out at 25 nM.
In turn, `CCN(CC)C(=O)[C@H]1CC[C@H]2[C@@H]3CC[C@H]4N(CC)C(=O)CC[C@]4(C)[C@H]3CC[C@]12C` gave a pIC50 on Androgen receptor of 4.49.
On Androgen receptor, `C[C@]12C=CC(=O)NC1CC[C@@H]1[C@@H]2CC[C@@]2(C)[C@H]1CC[C@@]21CCCO1` (stereo partly specified) had a pIC50 of 5.82. Further, the IC50 in experiment [1] was determined as 430 nM.
In the case of `CC(C)CC(=O)[C@H]1CC[C@H]2[C@@H]3CCC4NC(=O)CC[C@]4(C)[C@H]3CC[C@]12C` (stereo partly specified), the pIC50 against Androgen receptor was less than 4.00.
For `CCCCCCCCN(CCCCCCCC)C(=O)[C@H]1CC[C@H]2[C@@H]3CCC4N(C)C(=O)CC[C@]4(C)[C@H]3CC[C@]12C` (stereo partly specified), the pIC50 against Androgen receptor is 4.34. Moreover, the IC50 in experiment [1] is 33 nM.
At Androgen receptor, `CC(=O)[C@H]1[C@@H](C)C[C@H]2[C@@H]3CCC4N(C)C(=O)CC[C@]4(C)[C@H]3CC[C@@]21C` (stereo partly specified) had a pIC50 of 5.07. This compound also had an IC50 in experiment [1] of 16 nM.
Take `CCC(C)C(=O)[C@H]1CC[C@H]2[C@@H]3CCC4N(C)C(=O)CC[C@]4(C)[C@H]3CC[C@]12C` (stereo partly specified): the pIC50 on Androgen receptor is 6.38. Besides, the IC50 in experiment [1] came out at 1.9 nM.
Regarding `CN1C(=O)C=C[C@@]2(C)C1CC[C@H]1[C@@H]3CC[C@H](C(=O)c4ccc[nH]4)[C@@]3(C)CC[C@@H]12` (stereo partly specified), at Androgen receptor, the pIC50 was 7.82.
In the case of `CCC(C)C(=O)[C@H]1CC[C@H]2[C@@H]3CCC4NC(=O)C=C[C@]4(C)[C@H]3CC[C@]12C` (stereo partly specified), the pIC50 on Androgen receptor was less than 4.00. This compound also displayed an IC50 in experiment [1] of 50 nM.
In the same order, the values of `CCN(CC)C(=O)[C@H]1CC[C@H]2[C@@H]3CCC4N(C)C(=O)C=C(C#N)[C@]4(C)[C@H]3CC[C@]12C` (stereo partly specified) are less than 5.00 and greater than 1000 nM.
In the case of `CO[C@H]1CC(=O)NC2CC[C@H]3[C@@H]4CC[C@H](C(N)=O)[C@@]4(C)CC[C@@H]3[C@]21C` (stereo partly specified), at Androgen receptor, the pIC50 was less than 4.00.
Turning to `COC(CNC(=O)[C@H]1CC[C@H]2[C@@H]3CCC4N(C)C(=O)CC[C@]4(C)[C@H]3CC[C@]12C)OC` (stereo partly specified), at Androgen receptor, the pIC50 is 6.10. Besides, in experiment [1], the IC50 turned out to be 4.6 nM.
Taken in the same sequence, the figures for `CCN(CC)C(=O)[C@H]1CCC[C@H]2[C@@H]3CC[C@H]4N(C)C(=O)NC[C@]4(C)[C@H]3CC[C@]12C` were 5.80 and 500 nM.
`CCN(CC)C(=O)/C=C1\CC[C@H]2[C@@H]3CCC4N(C)C(=O)CC[C@]4(C)[C@H]3CC[C@]12C` (stereo partly specified): at Androgen receptor, the pIC50 was 6.03. Further, in experiment [1], the half-inhibitory concentration (IC50) came to 2.5 nM.
For the compound `C[C@]12CCC(=O)NC1CC[C@@H]1[C@@H]2CC[C@@]2(C)[C@H]1CC[C@@]21CCCO1` (stereo partly specified), the pIC50 against Androgen receptor was 5.60. The IC50 in experiment [1] worked out at 93 nM.
On to `CC(C)N(C(=O)[C@H]1CC[C@H]2[C@@H]3CC=C4N(C)C(=O)CC[C@]4(C)[C@H]3CC[C@]12C)C(C)C`, for which the pIC50 on Androgen receptor was 5.00.
`CNC(=O)[C@H]1CC[C@H]2[C@@H]3CC=C4N(C)C(=O)CC[C@]4(C)[C@H]3CC[C@]12C` gave a pIC50 against Androgen receptor of 6.40. Moreover, in experiment [1], the IC50 turned out to be 140 nM.
On to `CCNC(=O)[C@H]1CC[C@H]2[C@@H]3CC[C@H]4N(C)C(=O)C=C[C@]4(C)[C@H]3CC[C@]12C`, for which the pIC50 at Androgen receptor was 7.08.
On Androgen receptor, `CCN(CC)C(=O)[C@H]1CC[C@H]2[C@@H]3CC[C@H]4NC(=O)C=C[C@]4(C)[C@H]3CC[C@]12C` showed a negative logarithm of the IC50 (pIC50) of less than 4.00. The compound also came in with an IC50 in experiment [1] of 140 nM.
Turning to `CN1C(=O)CC[C@H]2C1=CC[C@@H]1[C@@H]2CC[C@@]2(C)[C@H]1CC[C@@]21CCCO1` (stereo in doubt; 74), the pIC50 at Androgen receptor is 6.62.
On Androgen receptor, `CN1C(=O)CC[C@H]2C1=CC[C@@H]1[C@@H]2CC[C@@]2(C)[C@H]1CC[C@@]21CCCO1` (stereo in doubt; 75) showed a pIC50 of 6.82.
In turn, `CC(C)(C)NC(=O)[C@H]1CC[C@H]2[C@@H]3CC[C@H]4NC(=O)C=C[C@]4(C)[C@H]3CC[C@]12C` [FINASTERIDE] gave an IC50 in experiment [1] of 6.8 nM.
